Consider 4 compounds from patent US9526718B2, “Combination of effective substances causing synergistic effects of multiple targeting and use thereof” (VIVOZON, INC., priority 2011, dated 2016).

The test system of test [1] is neuropathic pain rat model (SNL). The experiment in a line: Neuropathic pain rat model (spinal nerve ligation, SNL), von Frey up-down mechanical threshold. It counts as in vivo. The settings on record: Example 1, s.c., alone or combined, MDL 11,939 2 or 5 mg/kg, ORG-25543 10 or 20 mg/kg, 30 and 60 min after administration. As to the method: In order to prepare a neuropathic pain rat model (spinal nerve ligation (SNL) model), a male adult Sprague-Dawley rat was anaesthetized with isoflurane and its spinal nerves L5 were tied firmly (Kim and Chung, An experimental model for peripheral neuropathy produced by segmental spinal nerve ligation in the rat. Pain, 50: 355-363, 1992). One week later after surgical operation, MDL 11,939 and ORG-25543 were administered respectively or in combination thereof, and a pain relieving effect was monitored.
MDL 11,939 (Tocris Bioscience, USA) and ORG-25543 (CBvest inc, Korea) were dissolved in DMA/PG (2:8). MDL 11,939 was subcutaneously injected into the rat model and, immediately, ORG-25543 was subcutaneously injected into another part of the rat model. Then, 30 minutes and 60 minutes after administration, the extent of pain suppression was analyzed based on behaviors of the rat model.
The behavioral experiment was carried out with strict observance of clinical test procedures including criteria on randomization, a blind test, and use of a control group. By providing a mechanical stimulus to the left sole of the foot, a shrinking reaction to the stimulus was measured. This measurement value was determined by an up-down method using a von Frey monofilament (Baik et al., 2003 E. J. Baik, J. M. Chung and K. Chung, Peripheral norepinephrine exacerbates neuritis-induced hyperalgesia, J Pain 4 (2003), pp. 212-221; Chaplan et al., 1994 S. R. Chaplan, F. W. Bach, J. W. Pogrel, J. M. Chung and T. L. Yaksh, Quantitative assessment of tactile allodynia in the rat paw, J Neurosci Methods 53 (1994), pp. 55-63; Dixon, 1980 W. J. Dixon, Efficient analysis of experimental observations, Annu. Rev. Pharmacol. Toxicol. 20 (1980), pp. 441-462).
In the same manner as Example 1, a male adult Sprague-Dawley rat was anaesthetized with isoflurane and its spinal nerves L5 were tied firmly. […]

The test system of test [2] is serotonin release. To be noted: hypothalamic, rat; cited from earlier work.
Test [3] deals with 5-HT2A receptor (Homo sapiens, UniProt P28223). The settings on record: cited from earlier work.
5-HT2A receptor, sequence (P28223 whole entry): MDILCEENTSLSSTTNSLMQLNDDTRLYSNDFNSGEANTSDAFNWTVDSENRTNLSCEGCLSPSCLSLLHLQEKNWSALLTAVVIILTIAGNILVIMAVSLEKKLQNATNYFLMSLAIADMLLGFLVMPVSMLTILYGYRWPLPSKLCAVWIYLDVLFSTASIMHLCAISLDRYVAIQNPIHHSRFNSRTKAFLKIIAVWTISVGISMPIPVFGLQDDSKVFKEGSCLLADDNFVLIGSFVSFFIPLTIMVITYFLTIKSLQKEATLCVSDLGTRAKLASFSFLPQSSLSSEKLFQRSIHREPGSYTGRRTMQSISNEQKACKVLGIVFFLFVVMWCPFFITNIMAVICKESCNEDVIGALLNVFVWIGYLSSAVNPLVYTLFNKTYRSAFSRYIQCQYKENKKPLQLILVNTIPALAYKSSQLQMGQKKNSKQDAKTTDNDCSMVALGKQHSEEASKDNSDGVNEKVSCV

In the case of `OC(c1ccccc1)C1CCN(CCc2ccccc2)CC1` (centres unmarked) [MDL 11,939], the “pain relieving (analgesic) effect” value in test [1] is “no or very little pain relieving effect”.
Regarding `COc1cc(C(=O)NCC2(N(C)C)CCCC2)cc(OC)c1OCc1ccccc1` [ORG-25543], the results for the “pain relieving (analgesic) effect” value in test [1] and in test [1] (listed as ORG2553) were “no effect” and “no or very little pain relieving effect”, respectively.
Regarding `COc1cc2c(cc1OC)[C@@H]1Cc3ccc(OC)c(OC)c3CN1CC2` [d1-tetrahydropalmatine], the serotonin release result in test [2] is “mediates inhibition of serotonin release”.
Regarding `CC(C)=CCc1c(O)cc2oc3cc(O)c(O)c(CC=C(C)C)c3c(=O)c2c1O` [γ-mangostin], the “antagonistic effect with respect to 5-HT2A receptor” value in test [3] is on record as “antagonistic effect”.
